Target: T1, ggTas2r2 (Gallus gallus, UniProt A0A1D5PXM6)
T1 construct: gene LOC101747503; transient expression in HEK 293T stably expressing Galpha16gust44; printed residues Gly85, Trp88, Asn92, Tyr180, Leu184, Tyr243, Ser246, Gln250
T1 sequence (A0A1D5PXM6 1-311): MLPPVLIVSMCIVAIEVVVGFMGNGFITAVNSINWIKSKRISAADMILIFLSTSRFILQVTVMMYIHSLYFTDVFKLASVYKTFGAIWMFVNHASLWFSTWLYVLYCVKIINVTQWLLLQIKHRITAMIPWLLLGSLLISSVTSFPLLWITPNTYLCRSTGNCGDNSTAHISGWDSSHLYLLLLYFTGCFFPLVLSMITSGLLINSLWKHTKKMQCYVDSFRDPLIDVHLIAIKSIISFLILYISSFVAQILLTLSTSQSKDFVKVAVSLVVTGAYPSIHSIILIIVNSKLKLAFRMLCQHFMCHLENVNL
Assay: calcium mobilization, Fluo4-AM, FLIPR, dose-response
Assay type: cell-based
Conditions: agonist; HEK 293T with Galpha16gust44; 2.5 mM probenecid at loading

SMILES	calcium mobilization, Fluo4-AM, FLIPR, dose-response
C=C[C@H]1CN2CC[C@H]1C[C@@H]2[C@H](O)c1ccnc2ccc(OC)cc12 [epiquinidine]	Epiquinidine and ethylhydrocupreine can still activate ggTas2r2 and ggTas2r7
CCOc1ccc2nccc([C@@H](O)[C@@H]3C[C@@H]4CCN3C[C@@H]4CC)c2c1 [ethylhydrocupreine]	Epiquinidine and ethylhydrocupreine can still activate ggTas2r2 and ggTas2r7
